Among the data in patent publication US10562905B2, “Carboxy tetrahydropyrazolopyrazine compounds for the treatment of infectious diseases” (Hoffmann-La Roche Inc., priority 2016, dated 2020) are EC50 values, retold here.

A word on the EC50: it is the concentration giving half of the maximal effect.

For one assay, the system named is HBV. The assay can be described thus: HBV inhibition assay in HepG2.2.15 cells (qPCR of extracellular HBV DNA). Format: cell-based, Hepatitis B virus. Conditions: Hepatitis B virus, HepG2.2.15, 120 h, extracellular HBV DNA by qPCR, five days after compound treatment. The text has this:
HepG2.2.15 is a stably-transfected cell line containing the HBV genome. It is derived from the hepatoblastoma cell line Hep G2 (American Type Culture Collection, ATCC® HB-8065™) by the published procedures described in reference: MA Selles et al. Proc. Natl. Acad. Sci. USA 1987, 84, 1005-1009. The cell line was maintained in Dulbecco's modified Eagle's medium and nutrient mixture F-12 (DMEM/F-12, Gibco, Cat.#: 11320-033) supplemented with 10% fetal bovine serum (Gibco, Cat.#:10099-141), 100 U/mL penicillin, 100 μg/mL streptomycin (Gibco, Cat.#:15140-122), and 0.3 mg/mL of G418 Sulfate (Gibco, Cat.#: 10131-027).
HepG2.2.15 cells were seeded into 96-well plates at a density of 3×10^4 cells per well in culture media of 100 μL DMEM/F-12 supplemented with 2.5% fetal bovine serum, 100 U/mL penicillin, 100 μg/mL streptomycin and cultured overnight at 37° C. The test compounds were serially half-log diluted in DMSO, then diluted 100 times in culture media. 100 μL culture media containing diluted compounds were added into the plates to reach 0.5% final concentration of DMSO in every well. Five days after compound treatment, culture supernatant was collected for further analysis.
For quantitative PCR detection of extracellular HBV DNA, culture supernatant was processed by 500 μg/mL Proteinase K (Sigma, Cat.#:P2308) digestion at 50° C. for 1 hour. After heat inactivation of the enzyme at 95° C. for 15 minutes, the samples were subjected to HBV DNA quantification by qPCR. The effective compound concentration at which HBV replication was inhibited by 50% (EC50) was determined.
A general note: Real-time PCR tracks product formation cycle by cycle.
Consider `C[C@H]1Cn2ncc(N3CC(N4CCC(C(=O)O)C4)CC3=O)c2CN1C(=O)Nc1cc(F)c(F)c(F)c1` (stereo partly drawn) [Example 5, 1-[1-[(6S)-6-methyl-5-[(3,4,5-trifluorophenyl)carbamoyl]-6,7-dihydro-4H-pyrazolo[1,5-a]pyrazin-3-yl]-5-oxo-pyrrolidin-3-yl]pyrrolidine-3-carboxylic acid], for which the midpoint of the response, the EC50, lay at 240 nM.

Molecule `C[C@H]1Cn2ncc(N3C(=O)CC(N4CCC[C@@H]4C(=O)O)[C@@H]3C)c2CN1C(=O)Nc1cc(F)c(F)c(F)c1` (stereo partly drawn) [Example 4, (2R)-1-[(2S)-2-methyl-1-[(6S)-6-methyl-5-[(3,4,5-trifluorophenyl)carbamoyl]-6,7-dihydro-4H-pyrazolo[1,5-a]pyrazin-3-yl]-5-oxo-pyrrolidin-3-yl]pyrrolidine-2-carboxylic acid] came in with an EC50 of 105 nM.

Molecule `C[C@H]1Cn2ncc(N3CC(N(C)CC(=O)O)CC3=O)c2CN1C(=O)Nc1cc(F)c(F)c(F)c1` (stereo partly drawn) [Example 3, 2-[Methyl-[1-[(6S)-6-methyl-5-[(3,4,5-trifluorophenyl)carbamoyl]-6,7-dihydro-4H-pyrazolo[1,5-a]pyrazin-3-yl]-5-oxo-pyrrolidin-3-yl]amino]acetic acid] displayed an EC50 of 139 nM.

For `C[C@H]1Cn2ncc(N3CC(c4cccc(C(=O)O)c4)CC3=O)c2CN1C(=O)Nc1cc(F)c(F)c(F)c1` (stereo partly drawn) [Example 8, 3-[1-[(6S)-6-methyl-5-[(3,4,5-trifluorophenyl)carbamoyl]-6,7-dihydro-4H-pyrazolo[1,5-a]pyrazin-3-yl]-5-oxo-pyrrolidin-3-yl]benzoic acid], the half-maximal effective concentration (EC50) is 89 nM.

In the case of `C[C@H]1Cn2ncc(N3CC(Nc4ccccc4C(=O)O)CC3=O)c2CN1C(=O)Nc1cc(F)c(F)c(F)c1` (stereo partly drawn) [Example 12, 2-[[1-[(6S)-6-methyl-5-[(3,4,5-trifluorophenyl)carbamoyl]-6,7-dihydro-4H-pyrazolo[1,5-a]pyrazin-3-yl]-5-oxo-pyrrolidin-3-yl]amino]benzoic acid], a half-maximal response (EC50) required 288 nM.

Molecule `C[C@H]1Cn2ncc(N3CC(c4ccc(F)cc4C(=O)O)CC3=O)c2CN1C(=O)Nc1cc(F)c(F)c(F)c1` (stereo partly drawn) [Example 15, 5-Fluoro-2-[1-[(6S)-6-methyl-5-[(3,4,5-trifluorophenyl)carbamoyl]-6,7-dihydro-4H-pyrazolo[1,5-a]pyrazin-3-yl]-5-oxo-pyrrolidin-3-yl]benzoic acid] had a concentration giving a half-maximal response (EC50) of 57 nM.

`C[C@H]1[C@H](C)n2ncc(N3CC(N4CCC[C@H]4C(=O)O)CC3=O)c2CN1C(=O)Nc1cc(F)c(F)c(F)c1` (stereo partly drawn) [Example 6-1, (2S)-1-[1-[(6S,7S)-6,7-dimethyl-5-[(3,4,5-trifluorophenyl)carbamoyl]-6,7-dihydro-4H-pyrazolo[1,5-a]pyrazin-3-yl]-5-oxo-pyrrolidin-3-yl]pyrrolidine-2-carboxylic acid]: a half-maximal response (EC50) required 112 nM.

Molecule `C[C@H]1Cn2ncc(N3CC4COCC(C3=O)N4CC(=O)O)c2CN1C(=O)Nc1cc(F)c(F)c(F)c1` (stereo partly drawn) [Example 13, 2-[7-[(6S)-6-methyl-5-[(3,4,5-trifluorophenyl)carbamoyl]-6,7-dihydro-4H-pyrazolo[1,5-a]pyrazin-3-yl]-6-oxo-3-oxa-7,9-diazabicyclo[3.3.1]nonan-9-yl]acetic acid] yielded a concentration giving a half-maximal response (EC50) of 99 nM.

For `C[C@H]1Cn2ncc(N3CC(N4CCC[C@H]4C(=O)O)CC3=O)c2CN1C(=O)Nc1cc(F)c(F)c(F)c1` (stereo partly drawn) [Example 1, (2S)-1-[1-[(6S)-6-methyl-5-[(3,4,5-trifluorophenyl)carbamoyl]-6,7-dihydro-4H-pyrazolo[1,5-a]pyrazin-3-yl]-5-oxo-pyrrolidin-3-yl]pyrrolidine-2-carboxylic acid], the midpoint of the response, the EC50, lay at 126 nM.

`C[C@H]1Cn2ncc(N3CC(c4cc(F)ccc4C(=O)O)CC3=O)c2CN1C(=O)Nc1cc(F)c(F)c(F)c1` (stereo partly drawn) [Example 14, 4-Fluoro-2-[1-[(6S)-6-methyl-5-[(3,4,5-trifluorophenyl)carbamoyl]-6,7-dihydro-4H-pyrazolo[1,5-a]pyrazin-3-yl]-5-oxo-pyrrolidin-3-yl]benzoic acid] returned an EC50 of 30 nM.

With `C[C@H]1Cn2ncc(N3CC(c4ccccc4C(=O)O)CC3=O)c2CN1C(=O)Nc1cc(F)c(F)c(F)c1` (stereo partly drawn) [Example 7, 2-[1-[(6S)-6-methyl-5-[(3,4,5-trifluorophenyl)carbamoyl]-6,7-dihydro-4H-pyrazolo[1,5-a]pyrazin-3-yl]-5-oxo-pyrrolidin-3-yl]benzoic acid], the EC50 was found to be 22 nM.

`C[C@H]1Cn2ncc(N3C(=O)CC(N4CCC[C@H]4C(=O)O)[C@@H]3C)c2CN1C(=O)Nc1cc(F)c(F)c(F)c1` (stereo partly drawn) [Example 2, (2S)-1-[(2S)-2-methyl-1-[(6S)-6-methyl-5-[(3,4,5-trifluorophenyl)carbamoyl]-6,7-dihydro-4H-pyrazolo[1,5-a]pyrazin-3-yl]-5-oxo-pyrrolidin-3-yl]pyrrolidine-2-carboxylic acid] gave a half-maximal effective concentration (EC50) of 98 nM.

`C[C@H]1Cn2ncc(N3CC(c4ccc(C(=O)O)cc4)CC3=O)c2CN1C(=O)Nc1cc(F)c(F)c(F)c1` (stereo partly drawn) [Example 16, 4-[1-[(6S)-6-methyl-5-[(3,4,5-trifluorophenyl)carbamoyl]-6,7-dihydro-4H-pyrazolo[1,5-a]pyrazin-3-yl]-5-oxo-pyrrolidin-3-yl]benzoic acid] returned a concentration giving a half-maximal response (EC50) of 228 nM.

Consider `C[C@H]1Cn2ncc(N3CC(c4ncccc4C(=O)O)CC3=O)c2CN1C(=O)Nc1cc(F)c(F)c(F)c1` (stereo partly drawn) [Example 18, 2-[1-[(6S)-6-methyl-5-[(3,4,5-trifluorophenyl)carbamoyl]-6,7-dihydro-4H-pyrazolo[1,5-a]pyrazin-3-yl]-5-oxo-pyrrolidin-3-yl]pyridine-3-carboxylic acid], for which the EC50 was 102 nM.

`C[C@H]1Cn2ncc(N3CC(N4CCC[C@@H]4C(=O)O)CC3=O)c2CN1C(=O)Nc1cc(F)c(F)c(F)c1` (stereo partly drawn) [Example 9, (2R)-1-[1-[(6S)-6-methyl-5-[(3,4,5-trifluorophenyl)carbamoyl]-6,7-dihydro-4H-pyrazolo[1,5-a]pyrazin-3-yl]-5-oxo-pyrrolidin-3-yl]pyrrolidine-2-carboxylic acid] gave an EC50 of 124 nM.

The same assay, now with this note: extracellular HBV DNA by qPCR, five days after compound treatment.
As for `C[C@H]1Cn2ncc(N3CC(c4cccc(F)c4C(=O)O)CC3=O)c2CN1C(=O)Nc1cc(F)c(F)c(F)c1` (single isomer, unassigned) [Example 11-2], a half-maximal response (EC50) required 77 nM.

As for `C[C@H]1Cn2ncc(N3CC(c4ccccc4C(=O)O)CC3=O)c2CN1C(=O)Nc1cc(F)c(F)c(F)c1` (single isomer, unassigned) [Example 7-1], the 50% effective concentration (EC50) came out at 34 nM.

`C[C@H]1[C@H](C)n2ncc(N3CC(N4CCC[C@H]4C(=O)O)CC3=O)c2CN1C(=O)Nc1cc(F)c(F)c(F)c1` (stereo partly drawn) [Example 6-2, (2S)-1-[1-[(6S,7S)-6,7-dimethyl-5-[(3,4,5-trifluorophenyl)carbamoyl]-6,7-dihydro-4H-pyrazolo[1,5-a]pyrazin-3-yl]-5-oxo-pyrrolidin-3-yl]pyrrolidine-2-carboxylic acid] displayed an EC50 of 99 nM.

In the case of `C[C@H]1Cn2ncc(N3CC(c4cccc(F)c4C(=O)O)CC3=O)c2CN1C(=O)Nc1cc(F)c(F)c(F)c1` (single isomer, unassigned) [Example 11-1], the concentration giving a half-maximal response (EC50) is 312 nM.

For `C[C@H]1Cn2ncc(N3CC(c4ccccc4C(=O)O)CC3=O)c2CN1C(=O)Nc1cc(F)c(F)c(F)c1` (single isomer, unassigned) [Example 7-2], a half-maximal response (EC50) required 14 nM.

`C[C@H]1Cn2ncc(N3CC(c4c(F)cccc4C(=O)O)CC3=O)c2CN1C(=O)Nc1cc(F)c(F)c(F)c1` (single isomer, unassigned) [Example 10-1] yielded an EC50 of 106 nM.

The molecule `C[C@H]1Cn2ncc(N3CC(c4c(F)cccc4C(=O)O)CC3=O)c2CN1C(=O)Nc1cc(F)c(F)c(F)c1` (single isomer, unassigned) [Example 10-2] gave an EC50 of 17 nM.
